Results as given in US9650635B2, “Pharmaceutical compositions comprising small interfering RNA inhibitors of NOX3” (UNIVERSITY OF GENEVA, priority 2004, dated 2017).

Tests used:
Format in all cases: cell-based
NOX3 = target: T1, NOX3 (Mus musculus, UniProt Q672J9, D161Y); assay: Superoxide production of HEK293 cells transfected with NOX3 alone (luminol-amplified chemiluminescence / Diogenes / cytochrome C reduction)
T1 construct: expressed in transfected cells; host or cells: HEK293, transient transfection, pcDNA3.1
T1 sequence (Q672J9 1-568 D161Y): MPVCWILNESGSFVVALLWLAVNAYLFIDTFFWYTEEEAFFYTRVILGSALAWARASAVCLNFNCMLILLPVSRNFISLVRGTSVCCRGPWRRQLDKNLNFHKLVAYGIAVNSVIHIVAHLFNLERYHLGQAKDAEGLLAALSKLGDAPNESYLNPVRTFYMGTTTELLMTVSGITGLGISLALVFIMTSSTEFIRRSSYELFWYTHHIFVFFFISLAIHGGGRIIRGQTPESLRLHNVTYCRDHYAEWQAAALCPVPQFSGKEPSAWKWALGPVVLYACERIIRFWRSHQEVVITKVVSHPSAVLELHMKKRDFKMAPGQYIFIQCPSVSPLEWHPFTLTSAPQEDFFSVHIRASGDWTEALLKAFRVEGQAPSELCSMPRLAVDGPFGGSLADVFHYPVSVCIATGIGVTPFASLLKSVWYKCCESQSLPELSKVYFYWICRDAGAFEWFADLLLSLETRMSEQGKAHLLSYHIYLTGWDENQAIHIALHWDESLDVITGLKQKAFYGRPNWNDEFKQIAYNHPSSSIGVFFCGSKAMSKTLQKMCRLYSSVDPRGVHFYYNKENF
T1 sequence (P13498 1-195 partner): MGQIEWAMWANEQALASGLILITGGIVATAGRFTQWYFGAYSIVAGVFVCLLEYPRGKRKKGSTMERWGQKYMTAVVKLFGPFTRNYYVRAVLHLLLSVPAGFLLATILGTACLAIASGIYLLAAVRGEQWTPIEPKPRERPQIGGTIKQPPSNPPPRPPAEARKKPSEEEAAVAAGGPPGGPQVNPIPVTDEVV
Description: (§1) HEK293 were maintained in Dulbecco's Modified Eagle's Medium/Ham's Nutrient Mixture F12 that was supplemented with 10% fetal calf serum, penicillin (100 units/ml), streptomycin (100 μg/ml), and 4 mmol/liter L-glutamine. NOX3-, NOXO1-, NOXA1-, p47^phox, and p67^phox cDNAs were subcloned into pcDNA3.1 (Invitrogen, Groningen, Netherlands) and transfected into HEK293 cells with the Effectene transfection system (Qiagen). To obtain stable clones, NOX3, NOXO1, NOXA1-transfected HEK293 cells were selected with 400 μg/ml G418 starting on the 2nd day after the transfection. After 14 days of selection, 24 surviving clones were tested for superoxide production. The positive clones were verified to express NOX3-, NOXO1-, and NOXA1 RNA by RT-RCR.
(§2) ROS generation was measured by the peroxidase-dependent luminol-amplified chemiluminescence technique (referred to as luminol-amplified chemiluminescence) in 96 well microplates using Luminometer Wallac 1420 Multilabel Counter (PerkinElmer Life Sciences). Measurements were performed in Hanks' balanced salt solution supplemented with 1 mg/ml D-glucose, 1 unit/ml horseradish peroxidase, and 250 μM luminol. In some experiments, phorbol ester (PMA) was added during the measurements to 100 nM final concentration. When the effect of cisplatin or 5-Fluorouracil (5-FU) was investigated, these compounds were pre-incubated with the cells for the indicated time and concentration in cell culture medium. Before ROS measurements, the cell culture medium was exchanged with the assay solution and chemiluminescence or absorption (see below) was measured at 37° C. After measurements cells were counted, and the results were normalized to 150,000 cells. Extracellular superoxide production was measured in 96-well microplates at 550 nm as the SOD-sensitive reduction of 100 μM ferricytochrome C (referred to as cytochrome C reduction technique). The O^−2 production was calculated using an absorption coefficient of 21.1 mM^−1 cm^−1 and normalized to 10^7 cells.

NOX3/NOXO1/NOXA1 = target: T2, NOX3/NOXO1/NOXA1 (Mus musculus, UniProt Q672J9, D161Y); assay: Superoxide production of HEK293 cells expressing NOX3/NOXO1/NOXA1 (luminol-amplified chemiluminescence)
T2 construct: expressed in transfected cells
T2 sequence (Q8NFA2 whole entry partner, one chain of several): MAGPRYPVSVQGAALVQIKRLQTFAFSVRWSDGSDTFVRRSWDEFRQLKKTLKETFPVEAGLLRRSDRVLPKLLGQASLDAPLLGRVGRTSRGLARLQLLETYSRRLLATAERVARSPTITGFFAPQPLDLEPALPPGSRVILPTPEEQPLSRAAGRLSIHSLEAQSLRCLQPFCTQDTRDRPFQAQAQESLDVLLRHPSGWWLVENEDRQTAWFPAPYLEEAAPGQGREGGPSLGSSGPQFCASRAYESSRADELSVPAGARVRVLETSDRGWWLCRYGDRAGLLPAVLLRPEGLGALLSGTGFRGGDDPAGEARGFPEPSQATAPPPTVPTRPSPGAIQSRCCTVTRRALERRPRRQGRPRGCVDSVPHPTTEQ
T2 sequence (Q86UR1 whole entry partner, one chain of several): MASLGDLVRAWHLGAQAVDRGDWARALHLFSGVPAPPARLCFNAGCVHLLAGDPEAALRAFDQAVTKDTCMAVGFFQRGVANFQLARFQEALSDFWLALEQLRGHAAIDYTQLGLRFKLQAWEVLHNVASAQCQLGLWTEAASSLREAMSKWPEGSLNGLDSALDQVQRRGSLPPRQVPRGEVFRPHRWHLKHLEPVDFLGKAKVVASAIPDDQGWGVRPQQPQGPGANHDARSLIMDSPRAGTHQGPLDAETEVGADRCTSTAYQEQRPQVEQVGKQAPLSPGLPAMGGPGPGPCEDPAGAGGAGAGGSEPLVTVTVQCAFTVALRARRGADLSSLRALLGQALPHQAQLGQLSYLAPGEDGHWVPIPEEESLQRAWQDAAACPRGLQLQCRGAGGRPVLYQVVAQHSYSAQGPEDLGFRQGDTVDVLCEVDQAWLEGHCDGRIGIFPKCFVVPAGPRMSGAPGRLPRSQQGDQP
Description: as §1, §2

[1] = target: T3, NOX3, p47^phox, and p67^phox (Mus musculus, UniProt Q672J9, D161Y); assay: Superoxide production of HEK293 cells co-transfected with NOX3, p47phox and p67phox
T3 construct: expressed in transfected cells; host or cells: HEK293, transient co-transfection, pcDNA3.1
T3 sequence (Q672J9 1-568 D161Y): T1 sequence (Q672J9 1-568 D161Y)
T3 sequence (P13498 1-195 partner): T1 sequence (P13498 1-195 partner)
Description: as §1, §2

[2] = tested on: HEK293 cells transfected with control vector (pcDNA3.1); assay: Superoxide production of HEK293 cells transfected with control vector; settings: control-transfected (pcDNA3.1) HEK293 cells, 20 μM cisplatin, 12 hours
Description: as §1, with “The positive clones were verified to express NOX3-, NOXO1-, and NOXA1 RNA by RT-RCR.” left out
(§3) ROS generation was measured by the peroxidase-dependent luminol-amplified chemiluminescence technique (referred to as luminol-amplified chemiluminescence) in 96 well microplates using Luminometer Wallac 1420 Multilabel Counter (PerkinElmer Life Sciences). […] Before ROS measurements, the cell culture medium was exchanged with the assay solution and chemiluminescence or absorption (see below) was measured at 37° C. After measurements cells were counted, and the results were normalized to 150,000 cells. Extracellular superoxide production was measured in 96-well microplates at 550 nm as the SOD-sensitive reduction of 100 μM ferricytochrome C (referred to as cytochrome C reduction technique). […]

[3] = target: T4, NOXO1, p67^phox, and NOX3 (Mus musculus, UniProt Q672J9, D161Y); assay: Superoxide production of HEK293 cells expressing NOXO1, p67phox and NOX3; settings: 100 nM PMA
T4 construct: expressed in transfected cells; host or cells: HEK293, transient co-transfection, pcDNA3.1
T4 sequence (Q8NFA2 whole entry partner, one chain of several): as the sequence (Q8NFA2 whole entry partner, one chain of several) above
T4 sequence (P19878 whole entry partner, one chain of several): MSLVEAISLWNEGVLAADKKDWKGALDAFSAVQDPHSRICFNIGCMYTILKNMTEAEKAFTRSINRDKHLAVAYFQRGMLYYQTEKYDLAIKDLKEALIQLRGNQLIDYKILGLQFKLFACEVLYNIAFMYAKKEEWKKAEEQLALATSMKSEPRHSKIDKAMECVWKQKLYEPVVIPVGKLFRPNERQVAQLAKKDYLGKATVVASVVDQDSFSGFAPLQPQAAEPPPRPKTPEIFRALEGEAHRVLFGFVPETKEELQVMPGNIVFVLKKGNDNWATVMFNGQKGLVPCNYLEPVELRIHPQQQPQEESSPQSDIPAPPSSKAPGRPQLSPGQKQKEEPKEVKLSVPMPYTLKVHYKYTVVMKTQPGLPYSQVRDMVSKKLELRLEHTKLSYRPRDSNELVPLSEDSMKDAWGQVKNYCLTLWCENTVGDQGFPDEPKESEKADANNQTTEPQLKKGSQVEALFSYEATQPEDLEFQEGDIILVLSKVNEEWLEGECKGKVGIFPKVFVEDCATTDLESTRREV
Description: as §1, with “The positive clones were verified to express NOX3-, NOXO1-, and NOXA1 RNA by RT-RCR.” left out
as §3

[4] = target: T5, p47^phox, NOXA1, and NOX3 (Mus musculus, UniProt Q672J9, D161Y); assay: Superoxide production of HEK293 cells expressing p47phox, NOXA1 and NOX3; settings: 100 nM PMA
T5 construct: expressed in transfected cells; host or cells: HEK293, transient co-transfection, pcDNA3.1
T5 sequence (Q672J9 1-568 D161Y): T1 sequence (Q672J9 1-568 D161Y)
T5 sequence (P13498 1-195 partner): T1 sequence (P13498 1-195 partner)
Description: as §1, with “The positive clones were verified to express NOX3-, NOXO1-, and NOXA1 RNA by RT-RCR.” left out
as §3

[5] = stable clone, 12 hours incubation

Q: For `c1ccc2c(c1)[I+]c1ccccc1-2` [DPI, diphenylene iodonium], which “effect of DPI on superoxide generation” value (NOX3; NOX3-transfected HEK293 cells, cisplatin and PMA treated, 5 μM DPI) is on record?
A: blocked it completely

Q: And the “effect of DPI on superoxide generation” value (NOX3/NOXO1/NOXA1; stable HEK293 clones, with or without cisplatin, 5 μM DPI)?
A: abolished

Q: And the “effect of DPI on superoxide production” value ([1]; cisplatin-treated cells, 5 μM DPI, not shown)?
A: blocked

Q: With `N.N.[Cl][Pt][Cl]` [Cisplatin] as the compound, how does the “effect of cisplatin on superoxide production” value (“effect of cisplatin” for short) (NOX3; NOX3-transfected HEK293 cells, 20 μM cisplatin, 12 hours, before PMA addition) read?
A: elicited superoxide production

Q: What about the “effect of cisplatin” value (NOX3/NOXO1/NOXA1; stable HEK293 clones, 20 μM cisplatin, 12 hours) of the same compound?
A: marked increase of superoxide production

Q: And the “t50 of NOX3 activation” value (NOX3/NOXO1/NOXA1; stable clone, 20 μM cisplatin)?
A: 11.5 ± 1.7 h

Q: What about the “treatment time at which NOX3 activity is already enhanced” value (NOX3/NOXO1/NOXA1; stable clone, 20 μM cisplatin) of the same compound?
A: 5 h

Q: And the “treatment time to maximal effect” value (NOX3/NOXO1/NOXA1; stable clone, 20 μM cisplatin)?
A: around 17 hours

Q: What about the “concentration at which NOX3-dependent ROS generation is already increased” value (NOX3/NOXO1/NOXA1; [5]) of the same compound?
A: 1 µM

Q: What about the “concentration with maximal effect on NOX3-dependent ROS generation” value (NOX3/NOXO1/NOXA1; [5]) of the same compound?
A: 20 µM

Q: And the EC50 (NOX3/NOXO1/NOXA1; stable clone, 12 hours incubation, read-out: EC50 of NOX3 activation)?
A: 3.6 µM

Q: What about the “factor of enhancement of superoxide production” value ([1]; 20 μM cisplatin, 12 hours) of the same compound?
A: approximately 3.3

Q: And the “effect of cisplatin” value [2]?
A: not in control-transfected cells

Q: For `O=c1[nH]cc(F)c(=O)[nH]1` [5-fluorouracil, 5-Fluorouracil], which “effect of 5-fluorouracil on superoxide production” value (NOX3/NOXO1/NOXA1; 100 μM, 17 hours, data not shown) is on record?
A: did not influence superoxide production

Q: For `CCCCCCCCCCCCCC(=O)O[C@@H]1[C@@H](C)[C@@]2(O)[C@@H](C=C(CO)C[C@]3(O)C(=O)C(C)=C[C@@H]23)[C@@H]2C(C)(C)[C@]12OC(C)=O` [PMA, phorbol 12-myristate 13-acetate], which “effect of PMA on superoxide generation after cisplatin” value (NOX3; NOX3-transfected HEK293 cells pre-incubated with 20 μM cisplatin, 100 nM PMA) is on record?
A: further increased superoxide generation

Q: What about the “superoxide generation in the presence of PMA” value (NOX3; NOX3-transfected HEK293 cells, no other subunits, 100 nM PMA) of the same compound?
A: low amounts of superoxide

Q: What about the “effect of PMA on superoxide generation” value (NOX3/NOXO1/NOXA1; NOX3/NOXO1/NOXA1 HEK293 cells, 100 nM PMA) of the same compound?
A: insensitive to PMA

Q: And the “effect of PMA on NOX3 activity” value ([1]; 100 nM PMA)?
A: strong enhancement of NOX3 activity

Q: What about the “effect of PMA on superoxide generation” value [3] of the same compound?
A: could not be further enhanced by PMA

Q: And the “effect of PMA on superoxide production” value [4]?
A: largely PMA-dependent
